The assay has as its target T1, human NTCP (Homo sapiens, UniProt Q14973).
T1 sequence (Q14973 1-349): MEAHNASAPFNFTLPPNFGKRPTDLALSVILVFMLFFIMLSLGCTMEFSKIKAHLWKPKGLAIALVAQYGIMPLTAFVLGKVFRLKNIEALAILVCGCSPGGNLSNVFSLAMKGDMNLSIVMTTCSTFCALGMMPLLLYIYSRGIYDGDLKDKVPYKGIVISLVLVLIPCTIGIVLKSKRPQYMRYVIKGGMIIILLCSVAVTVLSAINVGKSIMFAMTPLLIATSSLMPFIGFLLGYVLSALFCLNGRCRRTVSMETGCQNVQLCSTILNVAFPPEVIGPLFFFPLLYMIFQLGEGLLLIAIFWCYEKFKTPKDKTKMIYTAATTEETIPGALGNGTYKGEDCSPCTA
Description: Screening taurocholate uptake assay (96-well, [14C]taurocholate, 10 µM drug). The following applies: for B-score functional assay: screening taurocholate uptake, 10 µM drug.

Where [1] appears, read: combined ranking of functional and binding screening assays.
The mark [2] stands for this setting: ranking over the functional and the binding screening assay.

Structures can show the parent of a compound that is named as a salt.

For the molecule `COCC1=C(C(=O)OC(C)OC(=O)OC(C)C)N2C(=O)[C@@H](NC(=O)/C(=N\OC)c3csc(N)n3)[C@H]2SC1` (stereo partly drawn) [Cefpodoxime proxetil], the B-score functional assay is given as -0.201. The Ranking score under setting [1] came to 640.176.

`CNCC[C@@H](Oc1ccccc1C)c1ccccc1` [Tomoxetine hydrochloride] yielded a B-score functional assay of 3.106. In addition, the Ranking score under setting [1] is 493.908.

In the case of `COc1cc2nc(N(C)CCCNC(=O)C3CCCO3)nc(N)c2cc1OC` (stereo not drawn) [Alfuzosin hydrochloride], the B-score functional assay was -2.737. Also, the Ranking score under setting [2] is recorded as 237.095.

The molecule `CCCCCCCCCCCCCCCC[N+](C)(C)CCN(Cc1ccc(OC)cc1)c1ncccn1` [Thonzonium bromide] came in with a B-score functional assay of -2.235. In addition, under setting [2], the Ranking score was determined as 50.5173.

As for `CCc1cc(C(N)=S)ccn1` [Ethionamide], the B-score functional assay came to 0.084. The same molecule displayed a Ranking score under setting [2] of 210.286.

Turning to `COc1ccc(C(=O)NCc2ccc(OCCN(C)C)cc2)cc1OC` [Itopride], the B-score functional assay was -0.688. The Ranking score under setting [1] is listed as 560.029.

`Nc1c2ccccc2nc2ccccc12` [Aminacrine] yielded a B-score functional assay of -0.079. Under setting [1], the Ranking score was found to be 608.609.

`CC(C)NCC(O)COc1ccc(COCCOC(C)C)cc1` (stereo not drawn) [Bisoprolol fumarate] yielded a B-score functional assay of 0.023. Besides, the Ranking score under setting [2] was 263.481.

Take `C[C@@H](O[C@H]1OCCN(Cc2n[nH]c(=O)[nH]2)[C@H]1c1ccc(F)cc1)c1cc(C(F)(F)F)cc(C(F)(F)F)c1` [Aprepitant]: the B-score functional assay is given as -3.7. This molecule registered a Ranking score under setting [2] of 111.812.

As for `OC(CCN1CCCC1)(c1ccccc1)C1CCCCC1` (stereo not drawn) [Procyclidine hydrochloride], the B-score functional assay is on record as -0.705. Besides, the Ranking score under setting [1] turned out to be 562.821.

For the molecule `CCn1cc(C(=O)[O-])c(=O)c2ccc(C)nc21.[Na+]` [Nalidixic acid sodium salt], the B-score functional assay is -0.033. The Ranking score under setting [1] was 500.32.

In the case of `CCC1(C)CC(=O)NC(=O)C1` [Bemegride], the B-score functional assay is on record as -2.979. The molecule also returned a Ranking score under setting [2] of 76.1315.

Molecule `O=C(O)Cc1ccccc1Nc1c(Cl)cccc1Cl` [Diclofenac sodium] returned a B-score functional assay of -1.237. Further, the Ranking score under setting [1] is on record as 464.103.

With `CCN1CCC[C@H]1CNC(=O)c1c(OC)ccc(Br)c1OC.Cl` [Remoxipride Hydrochloride], the B-score functional assay is -0.058. Further, under setting [1], the Ranking score came out at 496.085.

Turning to `CC(=O)Oc1ccccc1C(=O)O` [Acetylsalicylic acid], under setting [1], the Ranking score came to 1161.38. The molecule further displayed a B-score functional assay (B-score) of 2.017.

In the case of `COc1ccc(-c2ccc3cc(C(=O)O)ccc3c2)cc1C12CC3CC(CC(C3)C1)C2` [Adapalene], the B-score functional assay is given as 0.202. The Ranking score under setting [1] is recorded as 620.435.

On to `Cc1cccc(N(C)C(=S)Oc2ccc3ccccc3c2)c1` [Tolnaftate], for which the B-score functional assay is 6.72. For the same molecule, under setting [1], the Ranking score stood at 550.781.

With `CC(=O)N(CC(C)C(=O)O)c1c(I)cc(I)c(N)c1I` (stereo not drawn) [Iocetamic acid], the B-score functional assay was -0.783. Moreover, under setting [2], the Ranking score was determined as 232.635.

`N#CC(c1ccc(Cl)cc1)c1c(Cl)cc(-n2ncc(=O)[nH]c2=O)cc1Cl` (stereo not drawn) [Diclazuril] showed a B-score functional assay of -9.074. For the same molecule, under setting [2], the Ranking score is recorded as 46.9894.

Molecule `NC(=O)c1ccc[n+]([C@@H]2O[C@H](COP(=O)([O-])OP(=O)(O)OC[C@H]3O[C@@H](n4cnc5c(N)ncnc54)[C@H](O)[C@@H]3O)[C@@H](O)[C@H]2O)c1` [Nadide] returned a B-score functional assay of 0.371. For the same molecule, under setting [1], the Ranking score is reported as 475.971.

The molecule `CC[N+](CC)(CC)CCOc1cccc(OCC[N+](CC)(CC)CC)c1OCC[N+](CC)(CC)CC` [Gallamine triethiodide] returned a B-score functional assay of 3.679. Also, under setting [1], the Ranking score is listed as 565.721.
